We go through 13 compounds from patent US20240294498A1, “FACTOR XIIA INHIBITORS” (Lunac Therapeutics Ltd, priority 2021, published 2024).

Format in all cases: biochemical
Assay [1] deals with T1, FXIIa (Homo sapiens, UniProt P00748).
T1 construct: FXIIa alpha
T1 sequence (P00748 373-615 limits assumed): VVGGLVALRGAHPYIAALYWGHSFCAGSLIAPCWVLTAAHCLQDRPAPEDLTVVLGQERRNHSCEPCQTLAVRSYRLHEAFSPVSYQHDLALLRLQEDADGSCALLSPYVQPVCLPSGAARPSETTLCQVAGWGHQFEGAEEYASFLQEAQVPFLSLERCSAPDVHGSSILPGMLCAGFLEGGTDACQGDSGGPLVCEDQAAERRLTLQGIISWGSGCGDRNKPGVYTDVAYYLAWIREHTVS
T1 sequence (P00748 20-372 partner limits assumed): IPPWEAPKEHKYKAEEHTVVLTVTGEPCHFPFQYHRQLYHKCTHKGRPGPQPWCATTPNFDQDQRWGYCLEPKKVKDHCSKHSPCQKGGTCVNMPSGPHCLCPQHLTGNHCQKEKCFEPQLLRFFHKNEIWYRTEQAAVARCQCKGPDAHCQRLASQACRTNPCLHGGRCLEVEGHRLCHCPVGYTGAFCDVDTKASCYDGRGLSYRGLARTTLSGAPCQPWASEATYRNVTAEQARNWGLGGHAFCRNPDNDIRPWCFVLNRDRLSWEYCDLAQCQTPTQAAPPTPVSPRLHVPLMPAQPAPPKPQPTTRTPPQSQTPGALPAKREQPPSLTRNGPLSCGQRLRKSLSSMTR
Description: Determination of Factor XIIa inhibition (chromogenic substrate S-2302). The note with it: human FXIIa alpha, Ki category. How it is done:
(§1) The activities of the compounds of the invention have been determined in vitro using the following assays protocols for the screening of activity of FXIIa and other proteases. Each of these assays were performed in a purified system employing the use of chromogenic assays in microplate plate wells. Chromogenic peptide substrates mimicking natural protein substrates are attached via an amide bond to a chromogenic group. Paranitroaniline (pNA) is released from the peptide following catalyses by the proteolytic enzyme; the absorbance increases and can be monitored at 405 nm.
(§2) All compounds were dissolved in 100% (v/v) DMSO to a stock concentration of 10 mM, the highest concentration of compound used in each assay is 500 μM. The final concentrations of DMSO were 5% (v/v) in 50 mM Tris 137 mM NaCl pH 7.4. Where no test compound was added a final concentration of 5% DMSO was employed.
Factor XIIa activity was measured using a chromogenic substrate S-2302 (Chromogenix). Various concentrations of compound were incubated with 10 nM of FXIIa and incubated at 37° C. for 10 minutes in 50 mM Tris, 137 mM NaCl, pH 7.4, prior to the addition of the chromogenic substrate S-2302 at a concentration equal the to the experimentally derived KM. Kinetic readings at 405 nm were monitored every 12 secs for a total duration of 3 hours at 37° C. Gradients of initial rates were determined and employed to calculate IC50 values.
The activity of the compounds of the invention has been categorised based on the Ki values, the categories being “†”, “*”, “**” and “***”. […] The category “**” refers to compounds with a Ki value of 0.2 μM to 0.8 μM.
(§3) Ki═IC50/(1+[Substrate]/Km)
(§4) Where [Substrate] denotes the concentration of substrate used in the assay and Km is the determined value of each enzyme with its own substrate.

Assay [2] deals with T2, thrombin (Homo sapiens, UniProt P00734).
T2 construct: FXa (5 nM) and thrombin (5 nM)
Description: Determination of selectivity: thrombin inhibition (chromogenic substrate GPR). The note with it: fold selectivity for FXIIa over thrombin (human); category. On the procedure:
as §1, §2
(§5) To determine selectivity of test compounds, these test compounds were assayed for inhibitory activity against other serine proteases including FXa and thrombin. Essentially compounds at increasing concentrations were incubated with each enzyme: FXa (5 nM) and thrombin (5 nM), for 10 mins at 37° C. followed by the appropriate chromogenic substrate, S2765 (Chromogenix) and GPR (Bachem) respectively in 50 mM Tris, 137 mM NaCl, pH 7.4. Substrates were used at a concentration equal to the appropriate experimentally derived KM. Kinetic readings at 405 nm were monitored every 12 secs for a total duration of 3 hours at 37° C. Gradients of initial rates were determined and employed to calculate IC50 values. Values of IC50 were converted to Ki values based on the formula:
as §3, §4
The fold selectivity for FXIIa over thrombin for the compounds of the invention has been categorised based on the fold selectivity values, the categories being “+”, “++” and “+++”. The category “+” refers to fold selectivity values less than 10 (e.g. a fold selectivity value of less than 10 and greater than 1). The category “++” refers to a fold selectivity value of 10 to 100. The category “+++” refers to fold selectivity values greater than 100.

Assay [3] addresses FXa (Homo sapiens, UniProt P00742). Description: Determination of selectivity: FXa inhibition (chromogenic substrate S2765). The note with it: fold selectivity for FXIIa over FXa (human); category. On the procedure: as §1, §2, §5, §3, §4
The fold selectivity for FXIIa over FXa for the compounds of the invention has been categorised based on the fold selectivity values, the categories being “o”, “oo” and “ooo”. The category “o” refers to fold selectivity values less than 10 (e.g. a fold selectivity value of less than 10 and greater than 1). The category “oo” refers to a fold selectivity value of 10 to 100. The category “ooo” refers to fold selectivity values greater than 100.

Chain of FXa (P00742 235-488 limits assumed): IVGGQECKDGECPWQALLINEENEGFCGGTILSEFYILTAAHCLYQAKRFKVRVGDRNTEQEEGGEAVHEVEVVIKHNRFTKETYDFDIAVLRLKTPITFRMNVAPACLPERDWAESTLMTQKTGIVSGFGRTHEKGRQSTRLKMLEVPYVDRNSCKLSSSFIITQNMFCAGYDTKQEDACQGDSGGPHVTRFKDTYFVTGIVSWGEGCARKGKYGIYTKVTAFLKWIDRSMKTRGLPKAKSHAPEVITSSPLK
Chain of FXa (P00742 41-179 partner limits assumed): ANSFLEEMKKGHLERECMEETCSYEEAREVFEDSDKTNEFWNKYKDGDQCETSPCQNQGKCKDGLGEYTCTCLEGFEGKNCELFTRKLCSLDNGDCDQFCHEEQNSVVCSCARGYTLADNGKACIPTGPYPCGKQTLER

In turn, `Cn1ncc2cc(CNC(=O)[C@@H]3C[C@@H](Cc4ccc(OC(F)F)cc4)CN3C(=O)[C@@H]3NCCC[C@@H]3C(=O)N3CCCC3)ccc21` [Example M06021] gave a Ki in assay [1] of 0.2 to 0.8 µM. In addition, the “Thrombin (human)/FXIIa alpha (human)” value in assay [2] is given as “+++ (fold selectivity values greater than 100)”. In addition, the “FXa (human)/FXIIa alpha (human)” value in assay [3] is listed as “∘∘∘”.

As for `Cc1ccc(C[C@@H]2C[C@@H](C(=O)NCc3ccc4c(cnn4C)c3)N(C(=O)[C@@H]3NCCC[C@@H]3C(=O)N3C4CCC3COC4)C2)cc1` [Example M05770, (2S,4R)-1-((2R,3S)-3-(3-oxa-8-azabicyclo[3.2.1]octane-8-carbonyl)piperidine-2-carbonyl)-N-((1-methyl-1H-indazol-5-yl)methyl)-4-(4-methylbenzyl)pyrrolidine-2-carboxamide], in assay [1], the Ki lay in the range of 0.2 to 0.8 µM. Moreover, the “Thrombin (human)/FXIIa alpha (human)” value in assay [2] is reported as “+++ (fold selectivity values greater than 100)”. In assay [3], the “FXa (human)/FXIIa alpha (human)” value is “∘∘∘”.

Regarding `Cc1ccc(C[C@@H]2C[C@@H](C(=O)NCC3CCn4c(nnc4C(F)(F)F)C3)N(C(=O)[C@@H]3NCCC[C@@H]3C(=O)N3CCCC3)C2)cc1` (some centres unmarked) [Example M05851], the inhibition constant Ki in assay [1] was in the range of 0.8 to 5 µM. Moreover, in assay [2], the “Thrombin (human)/FXIIa alpha (human)” value is “+++ (fold selectivity values greater than 100)”. Besides, the “FXa (human)/FXIIa alpha (human)” value in assay [3] is given as “∘∘∘”.

Turning to `Cc1ccc(C[C@@H]2C[C@@H](C(=O)NCc3ccc4c(cnn4C)c3)N(C(=O)[C@@H]3NCCC[C@@H]3C(=O)N3CCC[C@@H]3C(F)(F)F)C2)cc1` [Example M05747, (2S,4R)-N-((1-methyl-1H-indazol-5-yl)methyl)-4-(4-methylbenzyl)-1-((2R,3S)-3-((R)-2-(trifluoromethyl)pyrrolidine-1-carbonyl)piperidine-2-carbonyl)pyrrolidine-2-carboxamide], in assay [1], the inhibition constant (Ki) is under 0.2 µM. The “Thrombin (human)/FXIIa alpha (human)” value in assay [2] is listed as “+++ (fold selectivity values greater than 100)”. Moreover, the “FXa (human)/FXIIa alpha (human)” value in assay [3] was “∘∘∘”.

In assay [1], `Cc1ccc(C[C@@H]2C[C@@H](C(=O)NCC3Cc4ccncc4C3)N(C(=O)[C@@H]3NCCC[C@@H]3C(=O)N3CCCC3)C2)cc1` (stereo partly drawn) [Example M05764, (2S,4R)-N-((6,7-dihydro-5H-cyclopenta[c]pyridin-6-yl)methyl)-4-(4-methylbenzyl)-1-((2R,3S)-3-(pyrrolidine-1-carbonyl)piperidine-2-carbonyl)pyrrolidine-2-carboxamide] came in with a Ki of under 0.2 µM. The “Thrombin (human)/FXIIa alpha (human)” value in assay [2] is “+++ (fold selectivity values greater than 100)”. Further, the “FXa (human)/FXIIa alpha (human)” value in assay [3] was “∘∘∘”.

With `Cn1ncc2cc(CNC(=O)[C@@H]3C[C@@H](Cc4ccccc4C(F)(F)F)CN3C(=O)[C@@H]3NCCC[C@@H]3C(=O)N3CCCC3)ccc21` [Example M05809, (2S,4R)-N-((1-methyl-1H-indazol-5-yl)methyl)-1-((2R,3S)-3-(pyrrolidine-1-carbonyl)piperidine-2-carbonyl)-4-(2-(trifluoromethyl)benzyl)pyrrolidine-2-carboxamide], in assay [1], the inhibition constant (Ki) was 0.2 to 0.8 µM. Further, the “Thrombin (human)/FXIIa alpha (human)” value in assay [2] is recorded as “+++ (fold selectivity values greater than 100)”. Besides, the “FXa (human)/FXIIa alpha (human)” value in assay [3] was “∘∘∘”.

In assay [1], `Cc1ccc(O[C@@H]2C[C@@H](C(=O)NCc3ccc4c(cnn4C)c3)N(C(=O)[C@@H]3NCCC[C@@H]3C(=O)N3CCCC3)C2)cc1` [Example M05798, (2S,4R)-N-[(1-methylindazol-5-yl)methyl]-4-(4-methylphenoxy)-1-[(2R,3S)-3-(pyrrolidine-1-carbonyl)piperidine-2-carbonyl]pyrrolidine-2-carboxamide] yielded an inhibition constant Ki of 0.8 to 5 µM. The “Thrombin (human)/FXIIa alpha (human)” value in assay [2] was “+++ (fold selectivity values greater than 100)”. Further, the “FXa (human)/FXIIa alpha (human)” value in assay [3] is given as “∘∘∘”.

For `Cc1ccc(C[C@@H]2C[C@@H](C(=O)NCc3ccc4c(cnn4C)c3)N(C(=O)[C@@H]3NCCC[C@@H]3C(=O)N3CCCC3)C2)cc1` [Example M05675, (2S,4R)-N-((1-methyl-1H-indazol-5-yl)methyl)-4-(4-methylbenzyl)-1-((2R,3S)-3-(pyrrolidine-1-carbonyl)piperidine-2-carbonyl)pyrrolidine-2-carboxamide], the Ki in assay [1] was under 0.2 µM. In addition, in assay [2], the “Thrombin (human)/FXIIa alpha (human)” value is recorded as “+++ (fold selectivity values greater than 100)”. Also, the “FXa (human)/FXIIa alpha (human)” value in assay [3] is reported as “∘∘∘”.

The compound `Cn1ncc2cc(CNC(=O)[C@@H]3C[C@@H](Cc4ccn(C5CC5)n4)CN3C(=O)[C@@H]3NCCC[C@@H]3C(=O)N3CCCC3)ccc21` [Example M05983, (2S,4S)-4-((1-cyclopropyl-1H-pyrazol-3-yl)methyl)-N-((1-methyl-1H-indazol-5-yl)methyl)-1-((2R,3S)-3-(pyrrolidine-1-carbonyl)piperidine-2-carbonyl)pyrrolidine-2-carboxamide] returned an inhibitory constant (Ki) in assay [1] of 0.8 to 5 µM. Moreover, in assay [3], the “FXa (human)/FXIIa alpha (human)” value is “∘∘∘”.

In the case of `Cn1nnc2cc(CNC(=O)[C@@H]3C[C@@H](Cc4ccc(C5CC5)nc4)CN3C(=O)[C@@H]3NCCC[C@@H]3C(=O)N3CCC[C@@H]3C(F)(F)F)ccc21` [Example M06070, (2S,4R)-4-[(6-cyclopropyl-3-pyridyl)methyl]-N-[(1-methylbenzotriazol-5-yl)methyl]-1-[(2R,3S)-3-[(2R)-2-(trifluoromethyl)pyrrolidine-1-carbonyl]piperidine-2-carbonyl]pyrrolidine-2-carboxamide], in assay [1], the Ki fell in the range of 0.2 to 0.8 µM. For the same compound, the “FXa (human)/FXIIa alpha (human)” value in assay [3] is given as “∘∘∘”.

Compound `Cc1ccc(C[C@@H]2C[C@@H](C(=O)NCc3ccn4c(C(F)F)nnc4c3)N(C(=O)[C@@H]3NCCC[C@@H]3C(=O)N3CCCC3)C2)cc1` [Example M05985, (2S,4R)-N-[[3-(difluoromethyl)-[1,2,4]triazolo[4,3-a]pyridin-7-yl]methyl]-4-(p-tolylmethyl)-1-[(2R,3S)-3-(pyrrolidine-1-carbonyl)piperidine-2-carbonyl]pyrrolidine-2-carboxamide] showed an inhibition constant Ki in assay [1] of 0.8 to 5 µM.

In assay [1], `Cc1ccc(C[C@@H]2C[C@@H](C(=O)NCCCc3cnn(C)c3)N(C(=O)[C@@H]3NCCC[C@@H]3C(=O)N3CCC[C@@H]3C(F)(F)F)C2)cc1` [Example M06077] had an inhibition constant Ki of 0.8 to 5 µM.

Consider `Cn1nnc2cc(CNC(=O)[C@@H]3C[C@@H](Cc4ccc(C5(F)CC5)cc4)CN3C(=O)[C@@H]3NCCC[C@@H]3C(=O)N3CCCC3)ccc21` [Example M06068, (2S,4R)-4-[[4-(1-fluorocyclopropyl)phenyl]methyl]-N-[(1-methylbenzotriazol-5-yl)methyl]-1-[(2R,3S)-3-(pyrrolidine-1-carbonyl)piperidine-2-carbonyl]pyrrolidine-2-carboxamide], for which, in assay [1], the Ki lay in the range of 0.8 to 5 µM. Also, in assay [3], the “FXa (human)/FXIIa alpha (human)” value is “∘∘∘”.
